Reference: article PMC10857906, “PROTAC-mediated NR4A1 degradation as a novel strategy for cancer immunotherapy” (The Journal of Experimental Medicine, 2024)

How the values were obtained:
[1] = target: T1, NR4A1 (Homo sapiens, UniProt P22736); experiment: NR4A1 degradation in WM164 and M229 human melanoma cells (immunoblotting); format: cell-based; details: 16 h
T1 construct: NR-V04 effectively promoted the degradation of NR4A1 in two human melanoma cell lines within 16 h; endogenous in cells; host or cells: CHL-1, A375, WM164, M229 human melanoma cells
Protocol: Human melanoma cell lines: A375 and CHL-1 (gifts from Dr. D. Zhou, the University of Texas Health Science Center, San Antonio, TX, USA) were cultured in Dulbecco’s Modified Eagles’ Medium (DMEM, D5796; Sigma-Aldrich), WM164 and M229 (gifts from Dr. K.S.M. Smalley’s lab) were cultured in RPMI-1640 (R8758; Sigma-Aldrich). Mouse melanoma cell lines: B16F10 (CRL-6475, ATCC) was cultured in DMEM, SW1 and SM1 (gift from Dr. K.S.M. Smalley, Moffitt Cancer Center, Tampa, FL, USA) were cultured in RPMI. Human epithelial kidney cell lines: HEK293T (293T, CRL-3216; ATCC) and Vhl-KO-293T (gift from Dr. D. Zhou, the University of Texas Health Science Center, San Antonio, TX, USA) were cultured in DMEM. Mouse colon cancer cell lines: MC38 (ENH204-FP; Kerafast Inc.) was cultured in DMEM supplemented with 1 mM glutamine, […] non-essential amino acids (11140050; Thermo Fisher Scientific), 1 mM sodium pyruvate (11360070; Thermo Fisher Scientific), and 10 mM HEPES (15630080; Thermo Fisher Scientific). […]
Samples were lysed using radioimmunoprecipitation assay buffer (RIPA) lysis buffer (150 mM NaCl, 5 mM EDTA, 50 mM Tris pH 8.0, 0.5% sodium deoxycholate, 1% NP-40, 0.1% SDS) supplemented with 1 mM dithiothreitol and protease inhibitors. The lysates were separated by SDS-PAGE and analyzed using standard western blotting procedures ([Khan et al., 2019]). […]

[2] = test system: TI-B cells; experiment: Immune profile by flow cytometry in Yumm1.7 tumor-bearing mice; format: in vivo, mouse; details: Yumm1.7 tumors, 2 doses of 1.8 mg/kg i.p.
Protocol: For syngeneic tumor models, 5 × 10^5 cells MC38, Yumm1.7, and Yummer1.7, 1 × 10^5 cells of B16F10 were resuspended in PBS and implanted into 7–9-wk-old mice subcutaneously. For the tumor inhibition experiment, mice were treated with 1.8 mg/kg NR-V04 or 0.75 mg/kg celastrol by i.p. injection twice weekly. For the immune profile experiment, once tumors reached 0.5 cm in diameter, mice were treated with 1.8 mg/kg NR-V04 by i.p. injection twice weekly. For the toxicity experiment, male and female non-tumor-bearing mice were treated with 2 mg/kg NR-V04 for two doses in the first week and 5 mg/kg for another two doses in the second week. Blood samples were taken from the submandibular (facial) vein before each treatment and 42 days later for hematological analysis, and body weight was measured twice per week up to day 42. Mice were euthanized in accordance with the IACUC protocol once the largest tumors reached 2 cm in diameter, and tissues were collected for further analysis.
Mouse tumors were excised and ∼200 mg of tumor tissue was enzymatically and mechanically digested using the mouse Tumor Dissociation Kit (Miltenyi Biotec) to obtain a single-cell suspension. […] Flow cytometry was performed on a three laser Cytek Aurora Cytometer (Cytek Biosciences) and analyzed using FlowJo software (BD Biosciences). […]

T1 sequence (P22736 whole entry): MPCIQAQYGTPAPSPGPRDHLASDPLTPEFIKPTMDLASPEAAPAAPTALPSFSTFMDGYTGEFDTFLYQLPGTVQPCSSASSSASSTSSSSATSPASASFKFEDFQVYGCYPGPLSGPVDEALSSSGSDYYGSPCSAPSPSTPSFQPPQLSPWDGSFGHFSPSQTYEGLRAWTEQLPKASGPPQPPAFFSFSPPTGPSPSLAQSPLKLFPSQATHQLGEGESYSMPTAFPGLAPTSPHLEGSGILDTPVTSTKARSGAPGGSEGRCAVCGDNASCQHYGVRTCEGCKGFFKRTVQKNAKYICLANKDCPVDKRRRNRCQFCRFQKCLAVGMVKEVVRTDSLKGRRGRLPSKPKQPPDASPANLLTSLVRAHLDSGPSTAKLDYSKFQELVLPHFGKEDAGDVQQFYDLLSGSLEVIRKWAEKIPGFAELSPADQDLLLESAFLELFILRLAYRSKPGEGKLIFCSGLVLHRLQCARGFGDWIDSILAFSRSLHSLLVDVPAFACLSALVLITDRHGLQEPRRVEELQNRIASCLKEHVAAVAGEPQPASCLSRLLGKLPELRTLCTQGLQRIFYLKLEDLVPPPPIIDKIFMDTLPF

`CC1=C(O)C(=O)C=C2C1=CC=C1[C@@]2(C)CC[C@@]2(C)[C@@H]3C[C@](C)(C(=O)NCCOCCOCCOCCOCC(=O)N[C@H](C(=O)N4C[C@H](O)C[C@H]4C(=O)N[C@@H](C)c4ccc(-c5scnc5C)cc4)C(C)(C)C)CC[C@]3(C)CC[C@]12C` [NR-V04] was tested, and the NR4A1 protein level ([1]; M229 human melanoma cells) was “reduced NR4A1 protein level”, the NR4A1 protein level ([1]; WM164 human melanoma cells) was “reduced NR4A1 protein level” and the TI-B cells [2] was “significant increase in the TI-B cells”.
